Source: US8466289B2, “Heterocyclic sulfonamide derivatives” (Novartis AG, priority 2009, dated 2013)

How the values were obtained:
[1] = system: BRAF-MEK-ERK cascade (activated BRAF (V599E), unactive MEK1, unactive MAP Kinase 2/ERK2); assay: BRAF-MEK-ERK enzymatic cascade assay (TR-FRET); type: biochemical, human; details: compounds screened at 10 μM, 45 minutes pre-incubation with enzymes, 100 μM ATP
From the text: A BRAF-MEK-ERK cascade assay is used to evaluate the effects of the compounds as inhibitors of the MAP kinase pathway. An enzymatic cascade assay is set up using recombinant human activated BRAF (V599E) kinase (Cat No. 14-557), human full length unactive MEK1 kinase (Cat No. 14-706) and human full length unactive MAP Kinase 2/ERK2 (Cat No. 14-536) enzymes procured from Upstate. TR-FRET (Time resolved fluorescence resonance energy transfer) detection technology is used for the read out. The assay buffer solution contains 50 mM Tris pH 7.5, 10 mM MgCl2, 1 mM DTT, 0.01% Tween 20, 0.1 nM activated BRAF, 2 nM unactive MEK1, 10 nM unactive ERK2, 100 μM ATP and 500 nM long chain biotin-peptide substrate (LCB-FFKNIVTPRTPPP) in a 384 well format. The kinase reaction is stopped after 90 minutes with 10 mM EDTA and Lance detection mix (2 nM Eu-labeled phospho-serine/threonine antibody (Cat. No. AD0176-Perkin Elmer), 20 nM SA-APC (Cat No. CR130-100-Perkin Elmer) is added. The TR-FRET signal (Excitation at 340 nm, Emission at 615 nm and 665 nm) is read with 50 μs delay time on a Victor3 V fluorimeter. The data is calculated using the ratio of readings at 665 nm to 615 nm. The final concentration of DMSO is 2.5% in the assay. Compounds are screened at 10 μM concentration with pre-incubation of the enzymes in the presence of test compound for 45 minutes.
Each individual IC50 is determined using a 10 point dose response curve generated by GraphPad Prism software Version 4 (San Diego, Calif., USA) using non linear regression curve fit for sigmoidal dose response (variable slope).
These assays described above are fully detailed in Han, Shulin, et. al., Bioorganic & Medicinal Chemistry Letters (2005) 15, 5467-5473, and in Yeh, et. al., Clin Cancer Res (2007) 13 (5), 1576-1583.
(§1) The compounds of the above Examples were evaluated as inhibitors of the MAP kinase pathway in a BRAF-MEK-ERK enzymatic cascade assay and in the cell viability assay described above.

[2] = system: A375 cells; assay: cell viability assay in A375 cells using XTT; type: cell-based; details: Homo sapiens, A-375, 72 h, XTT read three days after compound addition
Protocol: The cell viability assay in A375 cells is set up in a 96-well plate format using XTT.
XTT is a yellow tetrazolium salt that is cleaved to an orange formazan dye by the mitochondria of metabolically active cells. The procedure allows for rapid determination in a microtitre plate, to give reproducible and sensitive results.
A375 cells are grown in DMEM media containing 10% FBS and 1 mM sodium pyruvate. Cells are trypsinized and seeded at 1000 cells/well. After allowing the cells to adhere overnight, compound is added to the wells at the following final concentrations: 10, 3, 1, 0.3, 0.1, 0.03, 0.01, 0.001, and 0.0001 μM. The assay is set up in triplicates for each concentration. DMSO concentrations are kept at 0.5%/well. Three days after compound addition, the XTT assay is performed. Wells are washed once with PBS. 100 μL of DMEM media without phenol red or FBS is added to each well. A working solution of XTT containing 1 mg/ml XTT and 100 μL of PMS (stock concentration 0.383 mg/ml) per 5 ml is prepared. 50 μL of the working solution of XTT is added to each well. Absorbance of the plate is read at 465 nm using a Spectramax 190 (Molecular Devices). The absorbance from wells with media and XTT alone, but without cells is considered the blank and subtracted from readings from all wells.
Percentage viability is calculated considering the blank subtracted value from wells treated with DMSO alone as 100% viable. GI50 values are calculated using Graphpad Prism, using non-linear regression curve fit for sigmoidal dose response (variable slope).
The cell viability assay is further described in Scudiero, et. al., Cancer Research (1988) 48, 4827-4833; Weislow, et. al., J. Natl. Cancer Institute, (1989) 81, 577-586; and Roehm, et. al., J. Immunol. Methods [1991]142:257-265.
as §1

Compound	% inhibition [1] [%]	GI50 [2] [nM]
Cc1c(Nc2ccc(Br)cc2F)c(NS(=O)(=O)C2CC2)c2n(c1=O)CCN2Cc1ccccc1 [Example 1A, Cyclopropanesulfonic acid [1-benzyl-7-(4-bromo-2-fluoro-phenylamino)-6-methyl-5-oxo-1,2,3,5-tetrahydro-imidazo[1,2-a]pyridin-8-yl]-amide]	70	–
Cc1c(Nc2ccc(Br)cc2F)c(NS(=O)(=O)C2CC2)c2n(c1=O)CCN2 [Example 2A, Cyclopropanesulfonic acid [7-(4-bromo-2-fluoro-phenylamino)-6-methyl-5-oxo-1,2,3,5-tetrahydro-imidazo[1,2-a]pyridin-8-yl]-amide]	100	800
Cc1c(Nc2ccc(I)cc2F)c(NS(=O)(=O)C2CC2)c2n(c1=O)CCN2 [Example 3A, Cyclopropanesulfonic acid [7-(2-fluoro-4-iodo-phenylamino)-6-methyl-5-oxo-1,2,3,5-tetrahydro-imidazo[1,2-a]pyridin-8-yl]-amide]	100	19
Cc1c(Nc2ccc(Br)cc2F)c(NS(=O)(=O)C2(CC(O)CO)CC2)c2n(c1=O)CCN2 (centres unmarked) [Example 4A, 1-(2,3-Dihydroxy-propyl)-cyclopropanesulfonic acid [7-(4-bromo-2-fluoro-phenylamino)-6-methyl-5-oxo-1,2,3,5-tetrahydro-imidazo[1,2-a]pyridin-8-yl]-amide]	100	2880
Cc1c(Nc2ccc(I)cc2F)c(NS(=O)(=O)C2(CC(O)CO)CC2)c2n(c1=O)CCN2 (centres unmarked) [Example 5A, 1-(2,3-Dihydroxy-propyl)-cyclopropanesulfonic acid [7-(2-fluoro-4-iodo-phenylamino)-6-methyl-5-oxo-1,2,3,5-tetrahydro-imidazo[1,2-a]pyridin-8-yl]-amide]	100	293
Cc1c(Nc2ccc(I)cc2F)c(NS(=O)(=O)C2CC(O)C2)c2n(c1=O)CCN2 (centres unmarked) [Example 6A, 3-Hydroxy-cyclobutanesulfonic acid [7-(2-fluoro-4-iodo-phenylamino)-6-methyl-5-oxo-1,2,3,5-tetrahydro-imidazo[1,2-a]pyridin-8-yl]-amide]	100	1380
Cc1c(Nc2ccc(I)cc2F)c(NS(=O)(=O)C2CC2)c2n(c1=O)CCO2 [Example 7A, Cyclopropanesulfonic acid [7-(2-fluoro-4-iodo-phenylamino)-6-methyl-5-oxo-2,3-dihydro-5H-oxazolo[3,2-a]pyridin-8-yl]-amide]	99	26
Cc1c(Nc2ccc(I)cc2F)c(NS(=O)(=O)C2CC2CO)c2n(c1=O)CCO2 (centres unmarked) [Example 8A, 2-Hydroxymethyl-cyclopropanesulfonic acid [7-(2-fluoro-4-iodo-phenylamino)-6-methyl-5-oxo-2,3-dihydro-5H-oxazolo[3,2-a]pyridin-8-yl]-amide]	100	122
Cc1c(Nc2ccc(I)cc2F)c(NS(=O)(=O)C2(CCO)CC2)c2n(c1=O)CCO2 [Example 9A, 1-(2-Hydroxy-ethyl)-cyclopropanesulfonic acid [7-(2-fluoro-4-iodo-phenylamino)-6-methyl-5-oxo-2,3-dihydro-5H-oxazolo[3,2-a]pyridin-8-yl]-amide]	100	19
Cc1c(Nc2ccc(I)cc2F)c(NS(=O)(=O)C2(CC(O)CO)CC2)c2n(c1=O)CCO2 (centres unmarked) [Example 10A, 1-(2,3-Dihydroxy-propyl)-cyclopropanesulfonic acid [7-(2-fluoro-4-iodo-phenylamino)-6-methyl-5-oxo-2,3-dihydro-5H-oxazolo[3,2-a]pyridin-8-yl]-amide]	100	33
Cc1c(Nc2ccc(I)cc2F)c(NS(=O)(=O)C2(CO)CC2)c2n(c1=O)CCO2 [Example 11A, 1-Hydroxymethyl-cyclopropanesulfonic acid [7-(2-fluoro-4-iodo-phenylamino)-6-methyl-5-oxo-2,3-dihydro-5H-oxazolo[3,2-a]pyridin-8-yl]-amide]	100	20
Cc1c(Nc2ccc(I)cc2F)c(NS(=O)(=O)C2(CCCO)CC2)c2n(c1=O)CCO2 [Example 12A, 1-(3-Hydroxy-propyl)-cyclopropanesulfonic acid [7-(2-fluoro-4-iodo-phenylamino)-6-methyl-5-oxo-2,3-dihydro-5H-oxazolo[3,2-a]pyridin-8-yl]-amide]	100	11
Cc1c(Nc2ccc(I)cc2F)c(NS(=O)(=O)C2CC(O)C2)c2n(c1=O)CCO2 (centres unmarked) [Example 13A, 3-Hydroxy-cyclobutanesulfonic acid [7-(2-fluoro-4-iodo-phenylamino)-6-methyl-5-oxo-2,3-dihydro-5H-oxazolo[3,2-a]pyridin-8-yl]-amide]	100	122
Cc1c(Nc2ccc(I)cc2F)c(NS(=O)(=O)C2CCC2)c2n(c1=O)CCO2 [Example 14A, Cyclobutanesulfonic acid [7-(2-fluoro-4-iodo-phenylamino)-6-methyl-5-oxo-2,3-dihydro-5H-oxazolo[3,2-a]pyridin-8-yl]-amide]	100	16
Cc1c(Nc2ccc(I)cc2F)c(NS(=O)(=O)C2CC(C(CO)CO)C2)c2n(c1=O)CCO2 (centres unmarked) [Example 15A, 3-(1,3-dihydroxypropan-2-yl)-N-(7-(2-fluoro-4-iodophenylamino)-6-methyl-5-oxo-3,5-dihydro-2H-oxazolo[3,2-a]pyridin-8-yl)cyclobutane-1-sulfonamide]	100	1530
Cc1c(Nc2ccc(I)cc2F)c(NS(=O)(=O)CC2(C)COC2)c2n(c1=O)CCO2 [Example 16A, N-(7-(2-fluoro-4-iodophenylamino)-6-methyl-5-oxo-3,5-dihydro-2H-oxazolo[3,2-a]pyridin-8-yl)-1-(3-methyloxetan-3-yl)methanesulfonamide]	100	1300
Cc1c(Nc2ccc(I)cc2F)c(NS(=O)(=O)CCC2COC2)c2n(c1=O)CCO2 [Example 17A, N-(7-(2-fluoro-4-iodophenylamino)-6-methyl-5-oxo-3,5-dihydro-2H-oxazolo[3,2-a]pyridin-8-yl)-2-(oxetan-3-yl)ethanesulfonamide]	–	1730
Cc1c(Nc2ccc(I)cc2F)c(NS(=O)(=O)CCC(CO)CO)c2n(c1=O)CCO2 [Example 18A, N-(7-(2-fluoro-4-iodophenylamino)-6-methyl-5-oxo-3,5-dihydro-2H-oxazolo[3,2-a]pyridin-8-yl)-4-hydroxy-3-(hydroxymethyl)butane-1-sulfonamide]	100	4260
Cc1c(Nc2ccc(I)cc2F)c(NS(=O)(=O)C2CC2)c2n(c1=O)CCS2 [Example 19A, Cyclopropanesulfonic acid [7-(2-fluoro-4-iodo-phenylamino)-6-methyl-5-oxo-2,3-dihydro-5H-thiazolo[3,2-a]pyridin-8-yl]-amide]	100	0.3
Cc1c(Nc2ccc(I)cc2F)c(NS(=O)(=O)C2(CC(O)CO)CC2)c2n(c1=O)CCS2 (centres unmarked) [Example 20A, 1-(2,3-Dihydroxy-propyl)-cyclopropanesulfonic acid [7-(2-fluoro-4-iodo-phenylamino)-6-methyl-5-oxo-2,3-dihydro-5H-thiazolo[3,2-a]pyridin-8-yl]-amide]	100	54
